Test results from patent publication US7404945B2, “Method of evaluating pharmacological effects of medicine” (Tokyo Gas Company Limited, priority 2002, dated 2008).
Counter-ions that a name gives are not always drawn. Blank lines part the entries; values can stand above or below the compound they belong to.

How the values were obtained:
Format in all cases: in vivo
pancreatic protease = assay: Bz-Arg-[1-13C]Ala breath test; conditions: rats
Method: The pharmacological effect of camostat mesylate is the inhibition of pancreatic protease. Bz-Arg-[1-^13C]Ala (see Production Example 3) which is a substrate for pancreatic protease is provided as a pharmacological effect diagnostic reagent and a screening reagent. […] The results of the Bz-Arg-[1-^13C]Ala breath test were as follows: in the both groups, the Δ^13C increased linearly until at the time point of 15 minutes after the administration; twenty minutes after the administration, the Δ^13C reached 41.29±7.49‰ in the control group (n=3), while the Δ^13C reached 27.64±4.86‰ in the administration group (n=3); thus, the Δ^13C decreased in the administration group (FIG. 7). From the results, it was confirmed that the function of the target enzyme for camostat mesylate was inhibited under the camostat mesylate administration conditions of the present example.

DOPA decarboxylase = target: T1, DOPA decarboxylase (Rattus norvegicus, UniProt P14173); assay: [1-13C]DOPA breath test; conditions: rats
T1 construct: from tissue; host or cells: living rat (whole-animal breath test)
T1 sequence (P14173 1-480): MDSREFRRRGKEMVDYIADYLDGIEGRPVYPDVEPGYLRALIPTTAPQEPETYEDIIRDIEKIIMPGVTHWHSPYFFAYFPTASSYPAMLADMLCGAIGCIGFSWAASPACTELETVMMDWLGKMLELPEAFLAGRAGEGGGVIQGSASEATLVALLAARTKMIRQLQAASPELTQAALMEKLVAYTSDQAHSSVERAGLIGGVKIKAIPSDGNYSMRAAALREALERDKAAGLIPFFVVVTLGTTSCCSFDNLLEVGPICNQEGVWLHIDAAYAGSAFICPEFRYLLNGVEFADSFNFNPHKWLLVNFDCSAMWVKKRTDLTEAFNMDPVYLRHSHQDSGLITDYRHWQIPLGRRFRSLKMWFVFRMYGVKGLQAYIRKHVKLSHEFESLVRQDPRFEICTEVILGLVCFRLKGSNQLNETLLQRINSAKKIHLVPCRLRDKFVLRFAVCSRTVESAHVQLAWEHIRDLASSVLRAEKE
Method: The pharmacological effect of benserazide is the inhibition of DOPA decarboxylase. [1-^13C]DOPA (see Production Example 1) which is a substrate for DOPA decarboxylase is provided as a pharmacological effect diagnostic reagent and a screening reagent. Comparison was made in the [1-^13C]DOPA breath test on rats which were administered intraperitoneally with benserazide hydrochloride (Sigma) at a dose of 50 mg/kg three times (i.e., in the morning and evening of the day before the [1-^13C]DOPA breath test and 30 minutes before the breath test was started on the day of the test) (administration group) and rats without administration (control group).
The rats of the administration group and the control group which had been fasted overnight were fixed supinely under anesthesia. […] When the CO2 concentration stabilized, [1-^13C]DOPA was administered at a dose of 50 mg/kg through the femoral vein.
Output data from the ^13CO2 analyzer were AD-converted and input to a personal computer (Apple Power Macintosh 8500). […]
Δ^13C (‰) was calculated from the ^13C level in the exhaled CO2 at each time point (^13Ctmin) and the ^13C level in the standard CO2 (^13Cstd) according to the following equation: Δ^13C(‰)=[(^13Ctmin−^13C0min)/^13Cstd]×1000

α-glucosidase = assay: Glc-[U-13C]Glc breath test; conditions: rats, n=2
Description: The pharmacological effect of acarbose is the inhibition of α-glucosidase. Glc-[U-^13C]Glc (see Production Example 2) which is a substrate for α-glucosidase is provided as a pharmacological effect diagnostic reagent and a screening reagent.

Structure (SMILES): CN(C)C(=O)COC(=O)Cc1ccc(OC(=O)c2ccc(NC(=N)N)cc2)cc1 [camostat mesylate]
- function of the target enzyme (pancreatic protease; camostat mesylate 20 mg/kg oral): inhibited
- Δ13C twenty minutes after the administration (pancreatic protease; camostat mesylate 20 mg/kg oral concurrently with Bz-Arg-[1-13C]Ala 12.2 mg/kg oral, n=3): 27.64±4.86 ‰

- inhibition at 50 mg/kg (DOPA decarboxylase; rat, ip, benserazide 50 mg/kg i.p. three times, [1-13C]DOPA breath test, read-out: inhibition of the function of the target enzyme): ~100%
- Δ13C (degree of increase of the 13C level in exhaled CO2) (DOPA decarboxylase; benserazide hydrochloride 50 mg/kg i.p. three times, [1-13C]DOPA 50 mg/kg femoral vein, 20 minutes after the administration): about 5 ‰
Structure (SMILES): NC(CO)C(=O)NNCc1ccc(O)c(O)c1O (stereo not shown) [benserazide, benserazide hydrochloride]

Structure (SMILES): C[C@H]1O[C@H](O[C@H]2[C@H](O)[C@@H](O)[C@@H](O[C@H]3[C@H](O)[C@@H](O)C(O)O[C@@H]3CO)O[C@@H]2CO)[C@H](O)[C@@H](O)[C@@H]1N[C@H]1C=C(CO)[C@@H](O)[C@H](O)[C@H]1O (stereo partly shown) [acarbose]
- Δ13C in 20 minutes (α-glucosidase; acarbose 2 mg/kg oral concurrently with Glc-[U-13C]Glc 25 mg/kg oral): 37.06 ±0.16 ‰
- Δ13C in 20 minutes (α-glucosidase; acarbose 4 mg/kg oral concurrently with Glc-[U-13C]Glc 25 mg/kg oral): 26.01 ±0.38 ‰
- Δ13C in 20 minutes (α-glucosidase; acarbose 10 mg/kg oral concurrently with Glc-[U-13C]Glc 25 mg/kg oral): 9.86±0.66 ‰
